Earlier results in patent US20090023643A1, “Methods For Treating Acute Myocardial Infarction By Administering Calcitonin Gene Related Peptide And Compositions Containing The Same” (VasoGenix Pharmaceuticals, Inc., priority 2004, published 2009).

Legend:
[1] = test system: IL-7; conditions: Fernandez et al 2000
[2] = test system: B7-2; conditions: Ashana et al 1995; Torii et al 1997
[3] = test system: IGF-1 (insulin-like growth factor-1); conditions: R. Zfoncea et al 1997
[4] = test system: TNF-α; conditions: lipopolysaccharide induced, macrophages; Feng et al 1997
[5] = test system: IL-10; conditions: Torii et al 1997
[6] = test system: IL-12; conditions: Torii et al 1997
[7] = test system: IL-1β; conditions: Torii et al 1997
[8] = test system: IL-16; conditions: Dunzendorfer et al 2002-2003

Substance: CGRP
- CGRP activity: cytokines inhibited or suppressed, IL-7; benefits [1]: Inhibits pre B-cell development and T-cell development
- CGRP activity: cytokines inhibited or suppressed, B7-2; benefits [2]: Inhibits Granulocyte-Macrophage Colony
- expression of IGF-1 [3]: increases expression of IGF-1
- CGRP activity: cytokines inhibited or suppressed, TNF-α; benefits [4]: Inhibits lipopolysaccharide induced TNF-α in macrophages
- CGRP activity: induced anti-inflammatory cytokines, IL-10; benefits [5]: Inhibits monocyte inflammation
- CGRP activity: cytokines inhibited or suppressed, IL-12; benefits [6]: Suppresses Natural Killer Cell Stimulating factor (NKSF)
- CGRP activity: cytokines inhibited or suppressed, IL-1β; benefits [7]: Inhibits proliferation of T-cells
- CGRP activity: cytokines inhibited or suppressed, IL-16; benefits [8]: Inhibits macrophage chemotaxis
